Measurements reported in the NIST ThermoML archive (doi:10.1021/je0498053).

Key:
[1] = xn = mol fraction of the nth substance listed; details: 101.3 kPa, Liquid
[2] = 101.3 kPa, Liquid

CCCCN [1-butanamine] + CCCC(O)CC
[1], x1 = 1
Details | mass density [kg/m3] | viscosity [mPa·s]
303.15 K | 732.1 | 0.46
313.15 K | 722.9 | 0.4
323.15 K | 712.7 | 0.36

CCCCN [1-butanamine] + CCCC(C)CO
[1], x1 = 1
Details | mass density [kg/m3] | viscosity [mPa·s]
303.15 K | 732.1 | 0.46
313.15 K | 722.9 | 0.4
323.15 K | 712.7 | 0.36

CCCC(C)(C)O [2-methyl-2-pentanol] + CCCCN
[1]
Details | mass density, 303.15 K [kg/m3] | mass density, 313.15 K [kg/m3] | mass density, 323.15 K [kg/m3] | viscosity, 303.15 K [mPa·s] | viscosity, 313.15 K [mPa·s] | viscosity, 323.15 K [mPa·s]
x2 = 0 | 810.8 | 802.4 | 793.5 | 2.93 | 2.06 | 1.46
x2 = 0.1 | 806.7 | 798.2 | 789.2 | 2.62 | 1.88 | 1.34
x2 = 0.2 | 801.5 | 793.1 | 784 | 2.25 | 1.66 | 1.2
x2 = 0.3 | 795.7 | 787.2 | 778.2 | 1.86 | 1.41 | 1.04
x2 = 0.4 | 788.8 | 780.2 | 771.2 | 1.55 | 1.2 | 0.92
x2 = 0.4999 | 781.4 | 772.8 | 763.7 | 1.26 | 1 | 0.79
x2 = 0.5999 | 772.9 | 764.2 | 754.7 | 1.01 | 0.83 | 0.67
x2 = 0.7 | 763.8 | 755 | 745.1 | 0.82 | 0.69 | 0.57
x2 = 0.8 | 753.4 | 744.3 | 734.3 | 0.66 | 0.57 | 0.48
x2 = 0.9 | 742.4 | 733.3 | 723.6 | 0.54 | 0.47 | 0.41

CCCCN [1-butanamine] + CCCCC(C)O
[1], x1 = 1
Details | mass density [kg/m3] | viscosity [mPa·s]
303.15 K | 732.1 | 0.46
313.15 K | 722.9 | 0.4
323.15 K | 712.7 | 0.36

CCCC(O)CC (stereo unspecified) [3-hexanol]
[2]
Details | mass density [kg/m3] | viscosity [mPa·s]
303.15 K | 810.2 | 3.52
313.15 K | 801.7 | 2.34
323.15 K | 792.8 | 1.58

CCCCN [1-butanamine]
[2]
Details | mass density [kg/m3] | viscosity [mPa·s]
303.15 K | 732.1 | 0.46
313.15 K | 722.9 | 0.4
323.15 K | 712.7 | 0.36

CC(C)CC(C)O (stereo unspecified) [4-methyl-2-pentanol] + CCCCN
[1]
Details | mass density, 303.15 K [kg/m3] | mass density, 313.15 K [kg/m3] | mass density, 323.15 K [kg/m3] | viscosity, 303.15 K [mPa·s] | viscosity, 313.15 K [mPa·s] | viscosity, 323.15 K [mPa·s]
x2 = 0 | 799.3 | 790.7 | 782 | 3.23 | 2.24 | 1.55
x2 = 0.1 | 794.8 | 787 | 778.6 | 2.61 | 1.91 | 1.4
x2 = 0.2 | 790.7 | 782.9 | 774.5 | 2.06 | 1.57 | 1.21
x2 = 0.3 | 785.2 | 777.3 | 768.9 | 1.66 | 1.31 | 1.02
x2 = 0.3999 | 779.6 | 771.5 | 763 | 1.35 | 1.09 | 0.87
x2 = 0.5 | 772.8 | 764.6 | 755.9 | 1.09 | 0.91 | 0.75
x2 = 0.6 | 766 | 757.5 | 748.6 | 0.92 | 0.77 | 0.64
x2 = 0.6999 | 758 | 749.4 | 740.3 | 0.77 | 0.65 | 0.54
x2 = 0.7999 | 749.7 | 740.9 | 731.1 | 0.64 | 0.55 | 0.47
x2 = 0.9 | 740.8 | 731.7 | 721.7 | 0.56 | 0.48 | 0.41

CCCCN [1-butanamine] + CCCC(C)(C)O
[1], x1 = 1
Details | mass density [kg/m3] | viscosity [mPa·s]
303.15 K | 732.1 | 0.46
313.15 K | 722.9 | 0.4
323.15 K | 712.7 | 0.36

CCCC(C)(C)O [2-methyl-2-pentanol]
[2]
Details | mass density [kg/m3] | viscosity [mPa·s]
303.15 K | 810.8 | 2.93
313.15 K | 802.4 | 2.06
323.15 K | 793.5 | 1.46

CCCC(C)CO (stereo unspecified) [2-methyl-1-pentanol]
[2]
Details | mass density [kg/m3] | viscosity [mPa·s]
303.15 K | 816.8 | 4.55
313.15 K | 809.5 | 3.18
323.15 K | 801.5 | 2.25

CCCCC(C)O (stereo unspecified) [2-hexanol] + CCCCN
[1]
Details | mass density, 303.15 K [kg/m3] | mass density, 313.15 K [kg/m3] | mass density, 323.15 K [kg/m3] | viscosity, 303.15 K [mPa·s] | viscosity, 313.15 K [mPa·s] | viscosity, 323.15 K [mPa·s]
x2 = 0 | 806.4 | 798.4 | 790.1 | 3.23 | 2.29 | 1.64
x2 = 0.1 | 802 | 794.2 | 786 | 2.67 | 1.97 | 1.45
x2 = 0.2 | 796.7 | 788.9 | 780.6 | 2.19 | 1.68 | 1.26
x2 = 0.3 | 791.5 | 783.7 | 775.3 | 1.78 | 1.4 | 1.1
x2 = 0.4 | 785 | 776.9 | 768.5 | 1.47 | 1.17 | 0.93
x2 = 0.5 | 777.7 | 769.4 | 760.8 | 1.2 | 0.98 | 0.79
x2 = 0.6 | 769.8 | 761.4 | 751.1 | 0.97 | 0.81 | 0.67
x2 = 0.6999 | 760.7 | 752.1 | 741.6 | 0.79 | 0.68 | 0.57
x2 = 0.8 | 751.3 | 742.7 | 732.4 | 0.65 | 0.56 | 0.47
x2 = 0.9 | 742.1 | 732.9 | 722.9 | 0.53 | 0.47 | 0.4

CCCCC(C)O (stereo unspecified) [2-hexanol]
[2]
Details | mass density [kg/m3] | viscosity [mPa·s]
303.15 K | 806.4 | 3.23
313.15 K | 798.4 | 2.29
323.15 K | 790.1 | 1.64

CC(C)CC(C)O (stereo unspecified) [4-methyl-2-pentanol]
[2]
Details | mass density [kg/m3] | viscosity [mPa·s]
303.15 K | 799.3 | 3.23
313.15 K | 790.7 | 2.24
323.15 K | 782 | 1.55

CCCCN [1-butanamine] + CC(C)CC(C)O
[1], x1 = 1
Details | mass density [kg/m3] | viscosity [mPa·s]
303.15 K | 732.1 | 0.46
313.15 K | 722.9 | 0.4
323.15 K | 712.7 | 0.36

CCCC(C)CO (stereo unspecified) [2-methyl-1-pentanol] + CCCCN
[1]
Details | mass density, 303.15 K [kg/m3] | mass density, 313.15 K [kg/m3] | mass density, 323.15 K [kg/m3] | viscosity, 303.15 K [mPa·s] | viscosity, 313.15 K [mPa·s] | viscosity, 323.15 K [mPa·s]
x2 = 0 | 816.8 | 809.5 | 801.5 | 4.55 | 3.18 | 2.25
x2 = 0.1 | 810.3 | 803 | 795.3 | 3.38 | 2.51 | 1.85
x2 = 0.2 | 804.8 | 797.4 | 789.6 | 2.67 | 2.06 | 1.57
x2 = 0.2999 | 798.2 | 790.6 | 782.6 | 2.1 | 1.65 | 1.32
x2 = 0.4 | 791 | 783.2 | 775 | 1.67 | 1.35 | 1.08
x2 = 0.5 | 783.6 | 775.7 | 767.2 | 1.37 | 1.11 | 0.91
x2 = 0.6 | 774.5 | 766.3 | 757.7 | 1.1 | 0.9 | 0.75
x2 = 0.6999 | 764.7 | 756.2 | 747.4 | 0.89 | 0.72 | 0.6
x2 = 0.8 | 753.9 | 745.2 | 736.1 | 0.69 | 0.59 | 0.5
x2 = 0.8999 | 742.9 | 734.5 | 724.3 | 0.54 | 0.48 | 0.42

CCCC(O)CC (stereo unspecified) [3-hexanol] + CCCCN
[1]
Details | mass density, 303.15 K [kg/m3] | mass density, 313.15 K [kg/m3] | mass density, 323.15 K [kg/m3] | viscosity, 303.15 K [mPa·s] | viscosity, 313.15 K [mPa·s] | viscosity, 323.15 K [mPa·s]
x2 = 0 | 810.2 | 801.7 | 792.8 | 3.52 | 2.34 | 1.58
x2 = 0.1 | 806.4 | 798.4 | 789.8 | 2.85 | 2.2 | 1.44
x2 = 0.2 | 801.4 | 793.5 | 785 | 2.26 | 1.79 | 1.24
x2 = 0.3 | 795.6 | 787.5 | 776.9 | 1.78 | 1.39 | 1.07
x2 = 0.3999 | 788.6 | 780.5 | 770 | 1.41 | 1.09 | 0.91
x2 = 0.5 | 780.4 | 772 | 763.2 | 1.13 | 0.89 | 0.76
x2 = 0.5999 | 772 | 763.5 | 754.5 | 0.92 | 0.78 | 0.65
x2 = 0.7 | 762.9 | 754.1 | 745.2 | 0.76 | 0.68 | 0.55
x2 = 0.7999 | 753 | 743.6 | 734.4 | 0.65 | 0.58 | 0.48
x2 = 0.9 | 742 | 732.7 | 723.2 | 0.54 | 0.46 | 0.4
